Assay: xn = mol fraction of the nth substance listed
Conditions: Liquid, Pulse-echo method

CCCCCCC [heptane] + CCCO
Conditions	speed of sound [m/s]
308.07 K, 30400 kPa, x2 = 0	1290.3
308.07 K, 45590 kPa, x2 = 0	1368.7
308.08 K, 100 kPa, x2 = 0	1087.4
308.08 K, 15200 kPa, x2 = 0	1200.4
308.09 K, 121580 kPa, x2 = 0.7016	1655.6
308.09 K, 121580 kPa, x2 = 0.7986	1657.2
308.1 K, 121580 kPa, x2 = 0.3008	1657.5
308.1 K, 121580 kPa, x2 = 0.4992	1655.4
308.11 K, 30400 kPa, x2 = 0.6027	1293.7
308.11 K, 91190 kPa, x2 = 0	1562.4
308.11 K, 111450 kPa, x2 = 0.4992	1622.6
308.11 K, 111450 kPa, x2 = 0.7986	1625.7
308.12 K, 100 kPa, x2 = 0.3008	1086.3
308.12 K, 15200 kPa, x2 = 0.1008	1194.9
308.12 K, 60790 kPa, x2 = 0	1439
308.12 K, 75990 kPa, x2 = 0	1503.2
308.12 K, 91190 kPa, x2 = 0.7016	1555.2
308.13 K, 30400 kPa, x2 = 0.7986	1308.5
308.14 K, 45590 kPa, x2 = 0.6027	1368.1
308.14 K, 60790 kPa, x2 = 0.7986	1444.4
308.14 K, 91190 kPa, x2 = 0.3008	1552.6
308.14 K, 101320 kPa, x2 = 0.7986	1592.7
308.14 K, 111450 kPa, x2 = 0.3008	1624.1
308.15 K, 100 kPa, x2 = 0.7986	1128.4
308.15 K, 45590 kPa, x2 = 0.7986	1379.8
308.15 K, 60790 kPa, x2 = 0.3008	1431.2
308.15 K, 101320 kPa, x2 = 0.4992	1588.3
308.16 K, 45590 kPa, x2 = 0.3008	1362
308.16 K, 101320 kPa, x2 = 0.3008	1589.1
308.16 K, 101320 kPa, x2 = 0.7016	1590
308.16 K, 111450 kPa, x2 = 0.6027	1622.3
308.17 K, 75990 kPa, x2 = 0.3008	1494.3
308.17 K, 75990 kPa, x2 = 0.6027	1496.3
308.17 K, 111450 kPa, x2 = 0.7016	1623.4
308.17 K, 121580 kPa, x2 = 0	1668.6
308.18 K, 60790 kPa, x2 = 0.6027	1435
308.18 K, 75990 kPa, x2 = 0.4992	1495.2
308.18 K, 91190 kPa, x2 = 0.4992	1552.3
308.18 K, 91190 kPa, x2 = 0.6027	1552.8
308.18 K, 121580 kPa, x2 = 0.6027	1654.7
308.19 K, 30400 kPa, x2 = 0.3008	1284.8
308.19 K, 60790 kPa, x2 = 0.4992	1433
308.19 K, 75990 kPa, x2 = 0.7986	1503.4
308.2 K, 100 kPa, x2 = 0.4992	1095.2
308.2 K, 30400 kPa, x2 = 0.4992	1289.6
308.2 K, 45590 kPa, x2 = 0.4992	1365.2
308.2 K, 45590 kPa, x2 = 0.7016	1373.1
308.2 K, 75990 kPa, x2 = 0.1008	1497.7
308.2 K, 91190 kPa, x2 = 0.7986	1558.1
308.2 K, 101320 kPa, x2 = 0.1008	1593.7
308.21 K, 100 kPa, x2 = 0.6027	1103.5
308.21 K, 100 kPa, x2 = 0.7016	1114.7
308.21 K, 60790 kPa, x2 = 0.1008	1433.6
308.21 K, 60790 kPa, x2 = 0.7016	1438.8
308.21 K, 111450 kPa, x2 = 0	1634.6
308.22 K, 100 kPa, x2 = 0.1008	1082.2
308.22 K, 30400 kPa, x2 = 0.1008	1284.6
308.22 K, 30400 kPa, x2 = 0.7016	1300
308.22 K, 45590 kPa, x2 = 0.1008	1363.2
308.22 K, 91190 kPa, x2 = 0.1008	1556.7
308.22 K, 111450 kPa, x2 = 0.1008	1628.9
308.23 K, 75990 kPa, x2 = 0.7016	1499.1
308.23 K, 121580 kPa, x2 = 0.1008	1662.3
308.24 K, 101320 kPa, x2 = 0	1599.1
308.24 K, 101320 kPa, x2 = 0.6027	1588.1
313.08 K, 100 kPa, x2 = 0.7986	1109.7
313.08 K, 75990 kPa, x2 = 0.7986	1490.8
313.09 K, 30400 kPa, x2 = 0.4992	1273.3
313.09 K, 60790 kPa, x2 = 0.4992	1418.7
313.1 K, 100 kPa, x2 = 0	1066.1
313.1 K, 100 kPa, x2 = 0.6027	1083.9
313.1 K, 15200 kPa, x2 = 0	1182
313.1 K, 60790 kPa, x2 = 0.7986	1431
313.1 K, 75990 kPa, x2 = 0	1489.2
313.1 K, 121580 kPa, x2 = 0.7986	1645.9
313.11 K, 45590 kPa, x2 = 0.7986	1365.7
313.11 K, 91190 kPa, x2 = 0.7016	1542.7
313.11 K, 91190 kPa, x2 = 0.7986	1546.1
313.11 K, 101320 kPa, x2 = 0.7986	1580.9
313.12 K, 30400 kPa, x2 = 0	1273.3
313.12 K, 30400 kPa, x2 = 0.6027	1277.6
313.12 K, 45590 kPa, x2 = 0	1353
313.12 K, 45590 kPa, x2 = 0.3008	1346.5
313.12 K, 60790 kPa, x2 = 0	1424.3
313.12 K, 60790 kPa, x2 = 0.1008	1419
313.12 K, 75990 kPa, x2 = 0.6027	1482.9
313.12 K, 91190 kPa, x2 = 0.6027	1540
313.12 K, 101320 kPa, x2 = 0.6027	1575.9
313.12 K, 111450 kPa, x2 = 0.7986	1614.1
313.13 K, 45590 kPa, x2 = 0.1008	1347.6
313.13 K, 45590 kPa, x2 = 0.6027	1353
313.13 K, 91190 kPa, x2 = 0	1549
313.13 K, 101320 kPa, x2 = 0.7016	1578
313.13 K, 121580 kPa, x2 = 0	1656.4
313.14 K, 15200 kPa, x2 = 0.1008	1176.1
313.14 K, 60790 kPa, x2 = 0.6027	1420.9
313.14 K, 75990 kPa, x2 = 0.1008	1483.7

Source: the NIST ThermoML archive (doi:10.1021/je030136n)
